According to patent US8188077B2, “Apoptosis-inducing agents for the treatment of cancer and immune and autoimmune diseases” (Abbott Laboratories, priority 2010, dated 2012):

biological target: T1, Bcl-2 protein (Homo sapiens, UniProt P10415, DELINS35-91DVEENRTEAPEGTESE, form not given); assay: Bcl-2 fluorescence polarization assay (FPA) binding; details: 10 nM Bcl-2 protein, 1 nM fluorescein-labeled BAX peptide, room temperature, read-out: Bcl-2 FPA 11pt Ki
T1 construct: fused on or other part: Bcl-xL (Q07817) residues 29-44 stand in place of Bcl-2's own unstructured loop 35-91; The C-terminal membrane anchor (208-239) is absent
T1 sequence (P10415 with tags, fused parts or gaps with the stated changes): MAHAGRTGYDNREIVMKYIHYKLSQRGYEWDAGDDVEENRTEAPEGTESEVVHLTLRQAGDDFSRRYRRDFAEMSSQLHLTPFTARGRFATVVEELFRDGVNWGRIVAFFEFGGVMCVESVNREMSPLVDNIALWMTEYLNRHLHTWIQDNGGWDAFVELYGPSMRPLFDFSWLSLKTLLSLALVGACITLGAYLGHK
Outline: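 Competitive fluorescence polarization with 10 nM Bcl-2 protein and 1 nM fluorescein-labeled BAX peptide in 20 mM phosphate pH 7.4, 1 mM EDTA, 0.05% PF-68. Compound dilutions in DMSO spanned […] to 10 pM; mix shaken 2 min, polarization read at room temperature (ex 485/em 530 nm); Ki values calculated.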

Question: With CC1(C)[C@@H]2CC[C@@]1(C)CN(c1ccc(C(=O)NS(=O)(=O)c3ccc(NC4CCOCC4)c([N+](=O)[O-])c3)cc1)C2 [Example 79, N-{[3-nitro-4-(tetrahydro-2H-pyran-4-ylamino)phenyl]sulfonyl}-4-[(1R,5S)-1,8,8-trimethyl-3-azabicyclo[3.2.1]oct-3-yl]benzamide] as the compound, how does the Ki read?
Answer: The Ki was 1.42 µM.

Question: COc1ccc(-c2ccc3cc(C(=O)NS(=O)(=O)c4ccc(NCC5CCCCC5)c([N+](=O)[O-])c4)ccc3c2)cc1C12CC3CC(CC(C3)C1)C2 [Example 80, 6-{3-[adamantan-1-yl]-4-methoxyphenyl}-N-({4-[(cyclohexylmethyl)amino]-3-nitrophenyl}sulfonyl)-2-naphthamide] was tested. Which Ki did it give?
Answer: Its Ki is 1.3 µM.

Question: With O=C(NS(=O)(=O)c1ccc(NC2CCOCC2)c([N+](=O)[O-])c1)c1ccc(N2CCN(C(=O)CC34CC5CC(CC(C5)C3)C4)CC2)cc1 [Example 81, 4-{4-[adamantan-1-ylacetyl]piperazin-1-yl}-N-{[3-nitro-4-(tetrahydro-2H-pyran-4-ylamino)phenyl]sulfonyl}benzamide] as the compound, how does the Ki read?
Answer: Its Ki is 4.73 µM.

Question: For O=C(NS(=O)(=O)c1ccc(NC2CCOCC2)c([N+](=O)[O-])c1)c1ccc(NCC23CC4CC(CC(C4)C2)C3)cc1 [Example 82, 4-{[adamantan-1-ylmethyl]amino}-N-{[3-nitro-4-(tetrahydro-2H-pyran-4-ylamino)phenyl]sulfonyl}benzamide], which Ki is on record?
Answer: The Ki was 2.18 µM.

Question: With O=C(NS(=O)(=O)c1ccc(NC2CCOCC2)c([N+](=O)[O-])c1)c1ccc(N2CCC(NC(=O)C34CC5CC(CC(C5)C3)C4)CC2)cc1 [Example 83, N-{1-[4-({[3-nitro-4-(tetrahydro-2H-pyran-4-ylamino)phenyl]sulfonyl}carbamoyl)phenyl]piperidin-4-yl}adamantane-1-carboxamide] as the compound, how does the Ki read?
Answer: The Ki was over 6.25 µM.

Question: With O=C(NS(=O)(=O)c1ccc(NC2CCOCC2)c([N+](=O)[O-])c1)c1ccc(NC2C3CC4CC(C3)CC2C4)cc1 (centres unmarked) [Example 84, 4-[adamantan-2-ylamino]-N-{[3-nitro-4-(tetrahydro-2H-pyran-4-ylamino)phenyl]sulfonyl}benzamide] as the compound, how does the Ki read?
Answer: Its Ki is 2.38 µM.

Question: C[C@@H]1[C@H]2C[C@@H](C[C@H]1Oc1ccc(C(=O)NS(=O)(=O)c3ccc(NC4CCOCC4)c([N+](=O)[O-])c3)cc1)C2(C)C [Example 85, N-{[3-nitro-4-(tetrahydro-2H-pyran-4-ylamino)phenyl]sulfonyl}-4-{[(1R,2R,3R,5S)-2,6,6-trimethylbicyclo[3.1.1]hept-3-yl]oxy}benzamide] was tested. Which Ki did it give?
Answer: The Ki was 2.88 µM.

Question: With “N-(adamantan-2-yl)-6-methyl-8-{2-[(4-{4-[({3-nitro-4-[(tetrahydro-2H-pyran-4-ylmethyl)amino]phenyl}sulfonyl)carbamoyl]phenyl}piperazin-1-yl)methyl]phenyl}imidazo[1,2-a]pyridine-2-carboxamide [Example 26]” as the compound, how does the Ki read?
Answer: Its Ki is 1.17 µM.
